Data reported in US5906922A, “Delivery of nucleic acids” (Commonwealth Scientific and Industrial Research Organisation, priority 1994, dated 1999).
Read-outs that look alike come from different tables or passages of the source. Where a SMILES comes first, the peptide text is derived from it. The star is where a group is joined. NHC(CH2O-Palmitoyl)3 = CCCCCCCCCCCCCCCC(=O)OCC(COC(=O)CCCCCCCCCCCCCCC)(COC(=O)CCCCCCCCCCCCCCC)N*; X1 = CCCCCCCCCCCCCCCC(=O)OCC(CO)(CO)N*

Tests used:
[1] = test system: CHO cells; test: Proportion of cells transfected (β-gal staining), CHO; assay type: cell-based, Chinese Hamster
Method: (§1) Cell lines Cos 1 or CHO were transfected with 0.5 μg of pSVLCAT or 2 μg of pPGKlacZ plasmid using a range of concentrations of each transfection compound. The optimal concentration of compound, that is the concentration giving the highest level of CAT at 48 hours or the greatest percentage of lac z (β-galactosidase) staining cells at 24 hours was used to collate data for Table 1. As all compounds were not tested in a single experiment, absolute figures indicating transfection were not used. Rather, symbols are used to indicate the transfection efficiency relative to Lipofectamine (BRL), which was included as a control in all experiments. Table 1 thus indicates the relative efficiencies of a number of compounds in mediating the transfection of at least one cell type.
These conjugates were used to transfect CHO and Cos 1 cells with pPGKlacZNLS for estimation of the proportion of cells transfected. The transfection conditions used were as described above for the CAT experiments with cells being grown in 35 mm dishes for transfection. Cells were seeded the day prior to transfection at a density of 3.4×10^5 /dish (Cos 1) or 6.8×10^4 /dish (CHO). […] Random fields of cells were examined under the light microscope and the proportion of blue (β-GAL expressing) cells was determined. […]

[2] = test system: CHO cells; test: Transfection of pSVLCAT, CAT assay, CHO; assay type: cell-based, Chinese Hamster; conditions: for Transfection (CAT): Table 1, CHO, optimised level of agent
Method: Protocol was the same for Verafectin and Transfectam (see above) with the exception that 0.5 μg of pSVLCAT DNA was used /60 mm dish.
Lipofectamine protocol was according to manufacturer's instructions. 0.5 μg pSVLCAT/60 mm dish. CHO cells seeded 1×10^5 /60 mm dish and adhered overnight in DME/Hams medium with 10% FCS.
Transfectam 5 or 10 μl 1mg/400 μl stock solution.
Lipofectamine 5 or 10 μl 2 mg/ml (mixed formulation 3:1 with DOPE). VerafectinA3 (K3ATP3) and VerafectinG2 (K3G[Glycine]TP2) each at 5, 10 and 15 μl of 2 mM (2.8 and 2.3 mg/ml respectively) stock.
The serum free incubation period in the presence of test agents and DNA was 6 hours, then 1 ml DME/Hams+10% FCS was added. At 24 hrs the medium was changed to 2 ml of fresh DME/Hams+10% FCS until harvest at 48 hrs.
as §1
All test lipopeptide reagents were originally dissolved at 10 mM in 75% DMSO, and subsequently diluted with water to make a 2 mM stock stored at 4° C. Volumes of 2 mM stock lipopeptide ranging from 2 μl to 15 μl were diluted in 500 μl of DDME. 1 μg of plasmid pSVLCAT was separately diluted in 500 μl of DDME. Solutions were combined for 10-20 min at room temperature before adding to 500 μl of DDME in 60 mm dishes of subconfluent CHO cells (2×10^5 day-1) or Cos 1 cells (5×10^5 day-1); washed free of serum with DDME.
Cells were incubated for 6 hrs under standard conditions of 37° C. and 5% CO2 for 6 hours. 1.5 ml of DME/Hams+10% FCS (CHO) or DME+10% FCS (Cos 1) was added to the cells for overnight incubation. Fresh DME/Hams+10% FCS or DME+10% FCS was used to replace the medium for a further 24 hours prior to harvest. Cell lysates were prepared and assayed for CAT activity as described above. For Cos 1 cells, culture supernatants were assayed for CAT activity.
a. Using the standard transfection procedure described above, and 1 μg plasmid pSVLCAT, these formulations were tested on CHO cells at a single concentration equivalent to 10 μl of Verafectin A2 (2 mM) per sample and compared to unformulated compound and Lipofectamine in the same cell type. CAT production was assayed 48 hours after transfection.

[3] = test system: Cos 1 cells; assay type: cell-based, African Green Monkey
From the text: (§2) Relative levels of cytotoxicity caused by the different agents were compared during the experiment using the dye "Alamar Blue" (Alamar, Sacramento Calif.).
(§3) For experiment "c", a plasmid pPGKlaczNLS encoding β-galactosidase under the control of the mouse PGK promoter (kind gift from G.Hannan) or pSVGAL which utilises the SV40 early promoter (Sleigh, M. J. and Lockett, T. J. (1985). EMBO J. 4:3831-3837),was transfected. This experiment and assay were modified from Feigner et al J. Biol Chem. 269(4) 2550-2561 1994. This protocol allows the simultaneous assessment of 72 different combinations and concentrations of DNA and test agent in a microtitre tray. […] Cytotoxicity was assessed using alamar blue, and a sample graph is shown for experiment a.
The ratio of [lipid]/[DNA] at which that maximum was achieved is shown. Experiments shown were carried out in Cos 1 cells, as described above. MTS OD is a measure of relative viabilility of the cells exposed to the different agents, a higher value indicates greater cell viability. * These points were taken from a separate experiment and some slight variation between absolute numbers should be expected between experiments.
(§4) The ratio of [lipid]/[DNA] at which that maximum was achieved is shown in brackets for the two different cell types in the following order; (Cos 1) (CHO). Experiments shown were carried out in Cos 1 cells, as described above. Viability was measured with the dye alamar blue . # Denotes compounds tested in a separate experiment. * Viability in this experiment was determined with MTS. OD is a measure of relative viability of the cells exposed to the different agents, and as with alamar blue, a higher value indicates greater cell viability.

[4] = test system: Hela cells; test: β-gal plate transfection assay, Hela; assay type: cell-based, Human; conditions: 48 hours
Method: Hela cells were seeded in place of Cosl or CHO cells in DME+10% FCS at a density of 2×10^4 /well and transfected with pPGKlaczNLS as described above. At 48 hours, toxicity was determined by alamar blue and the cells processed for the β-gal assay.

[5] = test system: CHO cells; assay type: cell-based, Chinese Hamster
Method: (LEGEND--FIGS. 7, 8 and 9; none; no agent used with plasmid DNA, rb/blank; reagent blank, number following description of compound indicates no. μl of 2 mM stock (diluted with water). 7b: 100% cell survival was taken from dishes which were "mock transfected" with no DNA or transfection agent. 0% viability was assayed in the absence of cells. Viability was assessed using the dye alamar blue.)
as §2, §4

[6] = test system: CHO cells; test: β-gal microtitre plate transfection assay, CHO; assay type: cell-based, Chinese Hamster; conditions: Table 3, CHO, highest reading of 72 conditions
From the text: as §3
Each of these compounds was tested for transfection ability and cytotoxicity on standard cell lines using standard conditions as described above.
as §4

[7] = test system: Cos 1 cells; test: β-gal microtitre plate transfection assay, Cos 1; assay type: cell-based, African Green Monkey; conditions: for β-gal (Cos 1): Table 3, Cos 1, highest reading of 72 conditions
In short: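 Cos 1 cells were transfected with β-galactosidase plasmids (mouse PGK or SV40 early promoter) across varied lipid/DNA ratios in microtitre format. The lipid/DNA ratio giving maximal expression was recorded. Viability was measured with alamar blue or MTS, where higher OD means greater viability.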

[8] = test system: Cos 1 cells; assay type: cell-based, African Green Monkey; remark: listed apart in the source
In short: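 Relative viability of Cos 1 cells exposed to lipid/DNA agents was read as MTS optical density; higher OD means greater viability. Some points came from separate experiments.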

[9] = test system: mammalian cells; test: Transfection efficiency, general conclusions over cell lines; assay type: cell-based; conditions: other experiments (not shown)
Method: as §1
The compounds of the generic formula described on page 3 were addressed as consisting of the described basic building blocks: "x, y, R1-R4". These components were systematically varied to assess the optimal building blocks for transfection of standard cell lines in a standard assay system. Results will be presented by the use of example experiments, and shown as the levels of reporter gene expression achieved under standard conditions by either overall levels (CAT or β-galactosidase expression) or as % cells transfected (β-galactosidase--blue cells). Representative levels of cytotoxicity will also be described. […]

[10] = test system: Cos 1 cells; test: Transfection of pSVLCAT, CAT assay, Cos 1; assay type: cell-based, African Green Monkey; conditions: for Transfection (CAT): Table 1, Cos 1, optimised level of agent
[11] = test system: Cos 1 cells; test: Proportion of cells transfected (β-gal staining), Cos 1; assay type: cell-based, African Green Monkey; conditions: Table 1, Cos 1, % of cells
Method: as §1
These conjugates were used to transfect CHO and Cos 1 cells with pPGKlacZNLS for estimation of the proportion of cells transfected. The transfection conditions used were as described above for the CAT experiments with cells being grown in 35 mm dishes for transfection. Cells were seeded the day prior to transfection at a density of 3.4×10^5 /dish (Cos 1) or 6.8×10^4 /dish (CHO). […] Random fields of cells were examined under the light microscope and the proportion of blue (β-GAL expressing) cells was determined.

CCCCCCCCCCCCCCCC(=O)OCC(COC(=O)CCCCCCCCCCCCCCC)(COC(=O)CCCCCCCCCCCCCCC)NC(=O)[C@H](C)N [K0ATP3]
transfection (β-gal assay) ([1]; CHO cells): low levels of transfection | CAT transfection ([2]; "x" peptide experiment a, CHO): no measurable transfection

CCCCCCCCCC(=O)OCC(COC(=O)CCCCCCCCC)(COC(=O)CCCCCCCCC)NC(=O)[C@H](C)NC(=O)[C@H](CCCCN)NC(=O)[C@H](CCCCN)NC(=O)[C@@H](N)CCCCN [K3ATC3]
Viability (Cos 1) [3]: 0.104 | transfection ability, chain length C10 to C16 [4]: transfection ability was seriously curtailed | Viability (CHO) [5]: 0.052 | β-gal (CHO) [6]: 5.27 × 10^-6 | ratio [lipid]/[DNA] at which maximum was achieved ([7]; Table 3, Cos 1): 2.77 | β-gal (Cos 1) [7]: 9.08 × 10^-6

CCCCCCCCCCCCCCCC(=O)OCC(CO)(CO)NC(=O)[C@H](C)NC(=O)[C@H](CCCCN)NC(=O)[C@H](CCCCN)NC(=O)[C@@H](N)CCCCN [K3ATP1, trilysine alanine tris monopalmitate] (H-KKKA-X1)
MTS OD490-655 [8]: 1.34 | Viability (Cos 1) [8]: 1.34 | activity relative to tripalmitate K3 molecules [9]: 30% | Transfection (CAT) [10]: + | Transfection (CAT) [2]: + | ratio [lipid]/[DNA] at which maximum was achieved ([7]; Table 2, Cos 1): 5.55 | units β-gal ([7]; Table 2, Cos 1, highest reading of 72 conditions): 9.32 × 10^-6 units | ratio [lipid]/[DNA] at which maximum was achieved ([7]; Table 3, Cos 1): 5.55 | β-gal (Cos 1) [7]: 9.32 × 10^-6

CCCCCCCCCCCCCCCC(=O)OCC(CO)(COC(=O)CCCCCCCCCCCCCCC)NC(=O)CNC(=O)[C@H](CCCCN)NC(=O)[C@H](CCCCN)NC(=O)[C@@H](N)CCCCN [K3GTP2]
Transfection (βGal) ([1]; Table 1, CHO, % of cells): < 1% | transfection level relative to Lipofectamine ([10]; Experiment 4, Cos 1, 48 hours): ~30% | effect of equimolar DOPE on transfection efficiency ([10]; Experiment 4, Cos 1, compared to VerafectinG2 alone): approximate doubling of transfection efficiency | transfection level with equimolar DOPE relative to Lipofectamine ([10]; Experiment 4, Cos 1, plus equimolar unformulated DOPE): approximately 60% | Transfection (CAT) [10]: ++ | CAT levels relative to Lipofectamine ([2]; Experiment 3, CHO, 5 μl): ~22% | CAT levels relative to Transfectam ([2]; Experiment 3, CHO, 5 μl): approximately 64% | Transfection (CAT) [2]: +++

CCCCCCCCCCCCCCCC(=O)OCC(COC(=O)CCCCCCCCCCCCCCC)(COC(=O)CCCCCCCCCCCCCCC)NC(=O)[C@H](C)NC(=O)[C@H](CCCCN)NC(=O)[C@H](CCCCN)NC(=O)[C@H](CCCCN)NC(=O)[C@@H](N)CCCCN [K4ATP3] (H-KKKKA-{NHC(CH2O-Palmitoyl)3})
transfection, one to three palmitates, tetra lysine alanine ([10]; R1-R4 experiment g, Cos 1): more effective than the di or monopalmitate | Transfection (CAT) [10]: +(+) | mean level of CAT activity ([2]; "x" peptide experiment c, CHO, 2 hours incubation of 20 μl lysate): 1071 | Transfection (βGal) [11]: < 1%
